The text below walks through data of PMC7397336, “5-(4H)-Oxazolones and Their Benzamides as Potential Bioactive Small Molecules” (Molecules, 2020).

Series [1] is described as follows: Inhibition of linoleic acid lipid peroxidation (AAPH). The text has this:
Azo compounds, like AAPH, generating free radicals through spontaneous thermal decomposition are useful for in vitro studies of free radical production. Production of conjugated diene hydroperoxide by oxidation of sodium linoleate in an aqueous solution is monitored at 234 nm. This assay can be used to follow oxidative changes and to understand the contribution of each tested compound. […] It seems that the presence of moiety Ar (Scheme 1) is mainly correlated with the antioxidant result. The nature of the heteroatom O/S in Ar substituent in the 5-membered oxazolone ring (compounds 2c and 2e) influences the biological response. The replacement of the thienyl group in 2c by a furyl group (2e) leads to a 31% decrease of the antioxidant ability.
Each in vitro experiment was performed at least in triplicate and the standard deviation of absorbance was less than 10% of the mean. For the in vitro assays, a stock solution (1% DMSO in the appropriate buffer with the tested compound diluted under sonification) was prepared from which several dilutions were made with the appropriate buffer.
The AAPH-induced oxidation of linoleic acid measures the ability of an antioxidant to prevent oxidation of linoleic acid sodium salt induced by alkylperoxyl radicals, generated from the water soluble azo compound 2,2′-azobis(2-amidinopropane) dihydrochloride (AAPH). The assay was performed according to our previous publications. Trolox was used as reference compound.

In series [2] the target is T1, soybean lipoxygenase (Glycine max, UniProt P08170).
T1 construct: purchased Sigma Chemical, Co. (St. Louis, MO, USA)
T1 sequence (P08170 1-839): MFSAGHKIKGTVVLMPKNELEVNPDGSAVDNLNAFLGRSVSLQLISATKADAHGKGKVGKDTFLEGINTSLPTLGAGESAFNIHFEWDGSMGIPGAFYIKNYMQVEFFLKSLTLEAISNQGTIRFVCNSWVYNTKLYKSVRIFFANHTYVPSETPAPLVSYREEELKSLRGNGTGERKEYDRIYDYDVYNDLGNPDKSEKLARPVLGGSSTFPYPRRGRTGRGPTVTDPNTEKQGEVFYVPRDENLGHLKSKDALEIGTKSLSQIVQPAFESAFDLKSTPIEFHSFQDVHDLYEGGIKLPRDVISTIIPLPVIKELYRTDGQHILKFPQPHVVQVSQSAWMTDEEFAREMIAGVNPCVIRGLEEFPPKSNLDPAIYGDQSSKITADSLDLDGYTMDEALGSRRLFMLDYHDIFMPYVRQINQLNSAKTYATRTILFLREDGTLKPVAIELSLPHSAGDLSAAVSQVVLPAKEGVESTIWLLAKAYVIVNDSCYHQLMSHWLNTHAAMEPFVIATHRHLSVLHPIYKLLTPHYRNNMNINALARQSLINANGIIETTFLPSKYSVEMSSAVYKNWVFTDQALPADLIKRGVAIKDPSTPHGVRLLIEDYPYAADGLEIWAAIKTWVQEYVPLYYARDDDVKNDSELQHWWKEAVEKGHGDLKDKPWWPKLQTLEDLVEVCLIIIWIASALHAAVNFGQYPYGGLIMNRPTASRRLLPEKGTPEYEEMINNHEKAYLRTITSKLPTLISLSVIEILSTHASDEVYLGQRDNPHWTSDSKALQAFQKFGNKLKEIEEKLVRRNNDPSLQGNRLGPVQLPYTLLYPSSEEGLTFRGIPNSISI
As to the kind of experiment: Soybean lipoxygenase inhibition study. The series is classed as biochemical. The settings on record: for inhibition at 100 µM: read-out: LOX % inhibition 100 μM; for IC50: soybean lipoxygenase, sodium linoleate 0.1 mM, read-out: LOX IC50. Here is the method: For the in vitro assays, a stock solution (1% DMSO in the appropriate buffer with the tested compound diluted under sonification) was prepared from which several dilutions were made with the appropriate buffer. DMSO solution of the tested compound (stock solutions 10 mM) was incubated with sodium linoleate (0.1 mM) and 0.2 mL of soybean lipoxygenase solution (1/9 × 10^−4 w/v in saline) at room temperature. The test follows our previous published methods. […] Several concentrations were used to determine the IC50.

Series [3] concerns the target mushroom tyrosinase (Agaricus bisporus, UniProt C7FF04). As to the kind of experiment: Tyrosinase inhibition assay. The series is classed as biochemical. The following applies: L-Dopa substrate; for inhibition at 100 µM: read-out: ΤyrI% 100 μM (inhibition of mushroom tyrosinase). Here is the method: For the in vitro assays, a stock solution (1% DMSO in the appropriate buffer with the tested compound diluted under sonification) was prepared from which several dilutions were made with the appropriate buffer.

The subject of series [4] is carrageenin-induced rat paw edema. As to the kind of experiment: Inhibition of the carrageenin-induced rat paw edema. The settings on record: 0.0057 mmol/kg body weight i.p., 3.5 h after carrageenin. It is filed as in vivo, Fisher 344 rats. The method, then:
For the estimation of anti-inflammatory potential of the tested compounds the rat carrageenin induced paw edema assay was employed as a model for acute inflammation. Indomethacin, as a reference drug, and our compounds were administered intraperitoneally in order to ensure systemic response via fast bioavailability, while carrageenin’s intradermal administration, as inflammatory agent, aimed to local response. The development of the edema induced by carrageenin has been described as a biphasic event. The early phase of the inflammatory response, lasting 0.5–1.5 h, is chiefly mediated by histamine and serotonin release inducing hyperalgesia, swelling and redness, while the later phase, lasting 3–6 h, is sustained presumably by prostaglandin release. This model reliably predicts the anti-inflammatory efficacy of the NSAIDs during the second phase, since non-steroidal anti-inflammatory drugs (NSAIDs) present weak activity in the first phase. Therefore, using this protocol we could evaluate our compounds as potential anti-inflammatory agents, as a result of inhibition of prostaglandin amplification.
The animals (Fisher 344 rats), which have been bred in our laboratory, were housed under standard conditions and received a diet of commercial food pellets and water ad libitum during the maintenance but they were entirely fasted during the experiment period. Both sexes were used while females pregnant were excluded. Each group was composed of 6–15 animals. Our studies were in accordance with recognized guidelines on animal experimentation (guidelines for the care and use of laboratory animals published by the Greek Government 160/1991, based on EU regulations 86/609). […]
Edema was induced in the right hind paw of the rats by the intradermal injection of 0.1 mL 2% carrageenin in water we followed our previous published method. […] The change in paw weight was compared with that in control animals (treated with water) and expressed as a percent inhibition of the edema CPE % values. […]
In general terms: The carrageenan paw model is a standard test of acute inflammation.

Marks after values point to notes of the source that are not given here. Where only a bound is given, the exact number is not on record here.

mushroom tyrosinase, sequence (G1K3P4 entry or part of it): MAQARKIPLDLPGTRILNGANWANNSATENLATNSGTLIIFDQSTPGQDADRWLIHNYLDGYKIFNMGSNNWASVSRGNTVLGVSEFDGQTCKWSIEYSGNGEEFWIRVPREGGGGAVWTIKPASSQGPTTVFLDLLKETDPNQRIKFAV
mushroom tyrosinase, sequence (C7FF04 1-392): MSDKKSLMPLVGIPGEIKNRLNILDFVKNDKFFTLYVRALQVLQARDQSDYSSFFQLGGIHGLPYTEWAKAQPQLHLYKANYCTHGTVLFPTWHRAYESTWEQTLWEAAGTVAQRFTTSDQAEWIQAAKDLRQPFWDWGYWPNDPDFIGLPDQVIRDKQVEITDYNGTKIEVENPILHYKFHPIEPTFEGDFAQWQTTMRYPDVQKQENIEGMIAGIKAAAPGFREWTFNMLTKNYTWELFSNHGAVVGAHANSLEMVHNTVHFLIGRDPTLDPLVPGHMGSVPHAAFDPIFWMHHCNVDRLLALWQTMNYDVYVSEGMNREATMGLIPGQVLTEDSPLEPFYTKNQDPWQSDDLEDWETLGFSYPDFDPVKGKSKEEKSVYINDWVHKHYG

With `O=C1OC(c2ccccc2)=N/C1=C\c1ccccc1` [Compound 2a, (Z)-4-Benzylidene-2-phenyloxazol-5(4H)-one], the “AAPH% 100 µM (anti-lipid peroxidation)” value in series [1] was found to be 95%. Besides, the “LOX % inhibition 100 μM” value in series [2] (100 µM) was “no”. For the same molecule, the “ΤyrI% 100 μM (inhibition of mushroom tyrosinase)” value in series [3] is “no”.

By melting point is commonly meant the temperature, or range, at which the solid turns liquid. `O=C1OC(c2ccccc2)=N/C1=C\c1ccc(OCc2ccc(Br)cc2)cc1` [Compound 2b, (Z)-4-(4-((4-Bromobenzyl)oxy)benzylidene)-2-phenyloxazol-5(4H)-one] came in with a melting point of 199 to 200 °C. Moreover, the “AAPH% 100 µM (anti-lipid peroxidation)” value in series [1] was 79%. Further, the “LOX % inhibition 100 μM” value in series [2] (100 µM) is “no”. Moreover, the “ΤyrI% 100 μM (inhibition of mushroom tyrosinase)” value in series [3] is listed as “no”.

Usually inhibition stands for the drop in the measured response relative to a control, in per cent. Turning to `O=C1OC(c2ccccc2)=N/C1=C\c1cccs1` [Compound 2c, (Z)-2-Phenyl-4-(thiophen-2-ylmethylene)oxazol-5(4H)-one], the “AAPH% 100 µM (anti-lipid peroxidation)” value in series [1] is recorded as 91%. Besides, the “LOX % inhibition 100 μM” value in series [2] (100 µM) is given as “no”. In addition, the inhibition at 100 µM in series [3] came out at 16%.

In turn, `O=C1OC(c2ccccc2)=N/C1=C\c1cccc2ccccc12` [Compound 2d, (Z)-4-(Naphthalen-1-ylmethylene)-2-phenyloxazol-5(4H)-one] showed a melting point of 169 to 171 °C. In series [1], the “AAPH% 100 µM (anti-lipid peroxidation)” value is on record as 81%. In addition, the “LOX % inhibition 100 μM” value in series [2] (100 μM) amounted to 49%. In series [2] (100 µM), the inhibition at 100 µM was under 50%. Besides, the inhibition at 100 µM in series [3] came out at 5%.

For `O=C1OC(c2ccccc2)=N/C1=C\c1ccco1` [Compound 2e, (Z)-4-(Furan-2-ylmethylene)-2-phenyloxazol-5(4H)-one], the “AAPH% 100 µM (anti-lipid peroxidation)” value in series [1] amounted to 60%. Also, in series [3], the inhibition at 100 µM amounted to 3%.

With `O=C1OC(c2ccccc2)=N/C1=C\c1ccc(Oc2ccccc2)cc1` [Compound 2f, (Z)-4-(4-Phenoxybenzylidene)-2-phenyloxazol-5(4H)-one], the melting point came out at 169 °C. Besides, in series [1], the “AAPH% 100 µM (anti-lipid peroxidation)” value is listed as “no”. Moreover, in series [2] (100 µM), the “LOX % inhibition 100 μM” value is “no”.

For `O=C(N/C(=C\c1cccs1)C(=O)N1CCOCC1)c1ccccc1` [Compound 3c, (Z)-N-(3-morpholino-3-oxo-1-(thiophen-2-yl)prop-1-en-2-yl)benzamide], the melting point is 184 to 186 °C. For the same molecule, in series [1], the “AAPH% 100 µM (anti-lipid peroxidation)” value is given as 93%. Further, in series [2] (100 μM), the “LOX % inhibition 100 μM” value is reported as 39%. In addition, the inhibition at 100 µM in series [2] (100 µM) is under 50%. In addition, the inhibition at 100 µM in series [3] amounted to 7%.

Molecule `O=C(N/C(=C\c1cccc2ccccc12)C(=O)N1CCOCC1)c1ccccc1` [Compound 3d, (Z)-N-(3-morpholino-1-(naphthalen-1-yl)-3-oxoprop-1-en-2-yl)benzamide] displayed a melting point of 135 to 137 °C. For the same molecule, the “AAPH% 100 µM (anti-lipid peroxidation)” value in series [1] turned out to be 91%. For the same molecule, the “LOX % inhibition 100 μM” value in series [2] (100 μM) turned out to be 37%. The inhibition at 100 µM in series [2] (100 µM) is under 50%.

The term IC50 denotes the midpoint of a concentration-inhibition curve. In the case of `O=C(N/C(=C\c1ccc(OCc2ccc(Br)cc2)cc1)C(=O)N1CCN(C(=O)/C(=C/c2ccc(OCc3ccc(Br)cc3)cc2)NC(=O)c2ccccc2)CC1)c1ccccc1` [Compound 4b, N,N′-((1Z,1′Z)-piperazine-1,4-diylbis(1-(4-((4-bromobenzyl)oxy)phenyl)-3-oxoprop-1-ene-3,2-diyl))-bis-benzamide], the melting point lay within 285 to 286 °C. In series [1], the “AAPH% 100 µM (anti-lipid peroxidation)” value is reported as 99%. Besides, in series [2], the IC50 came out at 85 µM. Moreover, the inhibition at 100 µM in series [3] came out at 12%.

Turning to `O=C(N/C(=C\c1cccc2ccccc12)C(=O)N1CCN(C(=O)/C(=C/c2cccc3ccccc23)NC(=O)c2ccccc2)CC1)c1ccccc1` [Compound 4d, N,N′-((1Z,1′Z)-piperazine-1,4-diylbis(1-(naphthalen-1-yl)-3-oxoprop-1-ene-3,2-diyl))bisbenzamide], the melting point lay in the range of 282 to 284 °C. Moreover, the “AAPH% 100 µM (anti-lipid peroxidation)” value in series [1] was found to be 90%. Further, the IC50 in series [2] was 65 µM. Further, the inhibition at 100 µM in series [3] turned out to be 28%.

As to `O=C(N/C(=C\c1ccco1)C(=O)N1CCN(C(=O)/C(=C/c2ccco2)NC(=O)c2ccccc2)CC1)c1ccccc1` [Compound 4e, N,N′-((1Z,1′Z)-piperazine-1,4-diylbis(1-(furan-2-yl)-3-oxoprop-1-ene-3,2-diyl))bisbenzamide], the melting point lay within 293 to 295 °C. Further, the “AAPH% 100 µM (anti-lipid peroxidation)” value in series [1] is given as 83%. In series [2], the IC50 stood at 88 µM. Further, in series [3], the inhibition at 100 µM came out at 17%.

For `O=C(N/C(=C\c1cccs1)C(=O)N1CCCCC1)c1ccccc1` [Compound 5c, (Z)-N-(3-Oxo-3-(piperidin-1-yl)-1-(thiophen-2-yl)prop-1-en-2-yl)benzamide], the melting point is 181 to 182 °C. Besides, the “AAPH% 100 µM (anti-lipid peroxidation)” value in series [1] was 72%. For the same molecule, the “LOX % inhibition 100 μM” value in series [2] (100 μM) is listed as 41%. For the same molecule, the inhibition at 100 µM in series [2] (100 µM) was under 50%. The inhibition at 100 µM in series [3] worked out at 13%.

Take `CCOC(=O)/C(=C/c1cccs1)NC(=O)c1ccccc1` [Compound 6c, (Z)-Ethyl 2-benzamido-3-(thiophen-2-yl)acrylate]: the melting point was in the range of 156 to 159 °C. For the same molecule, in series [1], the “AAPH% 100 µM (anti-lipid peroxidation)” value was determined as 59%. Further, the “LOX % inhibition 100 μM” value in series [2] (100 μM) is 36%. Also, the inhibition at 100 µM in series [2] (100 µM) was under 50%. In addition, the inhibition at 100 µM in series [3] was 5%.

Consider `COc1ccc2c(c1)c(CC(=O)O)c(C)n2C(=O)c1ccc(Cl)cc1` [Indomethacin, reference compound], for which the “CPE (%) inhibition of carrageenin-induced rat paw edema” value in series [4] is 58 ** %.

With `Cc1c(C)c2c(c(C)c1O)CCC(C)(C(=O)O)O2` (centres unmarked) [Trolox, reference compound], the “AAPH% 100 µM (anti-lipid peroxidation)” value in series [1] was determined as 93%.
